Laboratory results from patent US7132547B2, “Preventives/remedies for urinary disturbance” (priority 2001, dated 2006).
Structures can show the parent of a compound that is named as a salt.

Experiments:
Hartley male guinea pigs = experiment: Effect on blood pressure in anesthetized guinea pigs; type: in vivo, guinea pig
Experimental: Hartley male guinea pigs (Slc) weighing 300 to 350 g was anesthetized with urethane (1.2 g/kg), and retained, a cervical region was incised to expose a left common carotid artery. A polyethylene tube filled with physiological saline containing heparin (10 U.I./ml) was inserted into an artery, and blood pressure was measured with a pressure transducer. A cannulae for administering test compound was inserted into a vein at an end of left hind leg, and a test compound dissolved in distilled water was administered therethrough at 0.5 mL/kg. The blood pressure was recorded at 20 Hz using an analogue data inputting apparatus (MP-100, BIOPAC Systems), and analyzed by analyzing software (AcqKnowledge 3.5.3, BIOPAC Systems). Example compound and tamsulosin were studied for a dose at which effects were recognized in the aforementioned test a (Pressure Flow Study), and an average blood pressure just before administration of test compound and an average blood pressure 15 minutes after administration were measured. Data were statistically treated by Paired t-test.

[1] = test system: Hartley male guinea pigs loaded with phenylephrine; experiment: Pressure Flow Study using guinea pigs loaded with phenylephrine; type: in vivo, guinea pig; conditions: i.v., tamsulosin 0.01 mg/kg, Example 20 0.1 mg/kg, urethane-anesthetized, phenylephrine 3 μg/animal/min
Experimental: Hartley male guinea pigs (Slc) weighing 300 to 350 g was anesthetized with urethane (1.2 g/kg, i.p.), and a median was incised to expose bladder. Two polyethylene tubes were inserted into bladder, and one of them was used for injecting a physiological saline and the other was used for measuring a bladder internal pressure. A cannulae was inserted into a left femoral vein, and phenylephrine was continuously administered intravenously at 3 μg/animal/min until the completion of experiment. A physiological saline was injected into bladder at a rate of 0.3 mL/min, and injection was stopped when urination was confirmed. The urinated urine weight was measured with an electron balance (HX-400, A & D) at real time. Analogue data of bladder internal pressure and urine weight were inputted into an AD transducer (MP-100, BIOPAC Systems), and digital signals were analyzed with exclusive analyzing software (AcqKnowledge 3.5.3, BIOPAC Systems). The sampling rate of data was 10 Hz, and data of urination amount and urine flow rate were subjected to a lowcut filter at 0.5 Hz in order to remove noises. The value of urine weight was differentiated to calculate urine flow rate (Q), and maximum urine flow rate (Qmax) at urination and bladder internal pressure (Pves (Qmax)) at maximum urine flow were calculated. The urination weight 1 g was converted into 1 mL to calculate the urination amount, and divided by bladder volume to obtain voiding efficiency (Voiding Efficiency). Example compound was dissolved in DMSO, and the solution was intravenously administered at 0.5 mL/kg. 10 minutes after administration of test compound, urinary reflection was recorded again, and change in urine flow rate (ΔQmax), and change in bladder internal pressure (ΔPves(Qmax)) and voiding efficiency were assessed. The change in urine flow rate (ΔQmax) and change in bladder internal pressure (ΔPves. (Qmax)) were an amount of change (Δ value) obtained by subtracting each value before administration of test compound from each value after administration, and voiding efficiency was assessed by a relative value (% of pre-value) of after administration of test compound relative to before administration. Tamsulosin which is a known α1 receptor antagonist was measured similarly. A significance diffenence was tested by a Dunnett test by comparing with each value of a vehicle (DMSO)-administered group.

[2] = 10 minutes after administration minus before

SMILES | melting point | other results
COc1ccc(CCNCCCCC(=O)c2cc3c4c(c2)CCN4C(=O)CC3)cc1.Cl | 179 to 181 °C | 
COc1ccc2c(c1)CCCN(CCCC(=O)c1cc3c4c(c1)CCN4C(=O)CC3)C2.Cl | 121 to 123 °C | 
COc1ccccc1CCN(C)CCCCC(=O)c1ccc2c(c1)n(C)c(=O)n2C.Cl | 125 to 140 °C (dec.) | 
COc1ccc(CCNCCCCCC(=O)c2cc3c4c(c2)CCN4C(=O)CC3)cc1.Cl | 179 to 180 °C | 
COc1ccccc1CCNCCCC(=O)c1cc2c3c(c1)CCN3C(=O)CC2.Cl | 165 to 167 °C | 
Cl.O=C(CCCCCNCCc1ccccc1Cl)c1c[nH]c2ccccc12 | 151 to 153 °C | 
Cl.Cn1c(=O)n(C)c2cc(C(=O)CCCCNCCc3ccccc3)ccc21 | 187 to 189 °C | 
CCOc1ccccc1CCN1CCC(CCC(=O)c2cc3c4c(c2)CCN4C(=O)CC3)CC1.Cl | 182 to 184 °C | 
CC(C)NS(=O)(=O)c1cc(C(=O)CCCCNCCc2ccccc2Cl)cc2c1OCC2.Cl | 149 to 151 °C | 
COc1ccccc1CCNCCCCC(=O)c1ccc(OC)c(S(N)(=O)=O)c1.Cl | 139 to 141 °C | 
Cl.O=C(CCCCCNCCc1ccccc1Cl)c1cccs1 | 149 to 151 °C | 
COc1cccc(CCNCCCCCC(=O)c2cc3c4c(c2)CCN4C(=O)CC3)c1.Cl | 136 to 138 °C | 
Cl.O=C1NCc2cc(C(=O)CCCCNCCc3ccccc3Cl)ccc2N1 | 176 to 185 °C (dec.) | 
Cl.O=C(CCC1CCN(CCCc2ccccc2)CC1)c1cc2c3c(c1)CCN3C(=O)CC2 | 173 to 175 °C | 
Cl.O=C(CCC1CCN(CCc2ccccc2F)CC1)c1cc2c3c(c1)CCN3C(=O)CC2 | 210 to 212 °C | 
Cl.O=C(CCCCNCCc1ccccc1)c1cc2c3c(c1)CCN3C(=O)CC2 | 166 to 168 °C | 
Cl.O=C(CCC1CCN(CCc2cccc(Cl)c2)CC1)c1cc2c3c(c1)CCN3C(=O)CC2 | 223 to 225 °C | 
COc1cccc(CCNCCCCC(=O)c2cc3c4c(c2)CCN4C(=O)CC3)c1.Cl | 97 to 100 °C | 
COc1cc2c(cc1OC)CN(CCCCC(=O)c1cc3c4c(c1)CCN4C(=O)CC3)CC2.Cl | 215 to 217 °C | 
Cl.O=C(CCCCCNCc1ccccc1)c1cc2c3c(c1)CCN3C(=O)CC2 | 181 to 183 °C | 

SMILES | melting point | other results
Cl.O=C(CCCCNCCc1ccc(Cl)cc1)c1cc2c3c(c1)CCN3C(=O)CC2 | 193 to 195 °C | 
Cl.O=C(CCCCNCCc1cccc(F)c1)c1cc2c3c(c1)CCN3C(=O)CC2 | 172 to 173 °C | 
O=C(CCC1CCN(CCc2ccccc2)CC1)c1cc2c3c(c1)CCN3C(=O)CC2 (as salt: hydrochloride) | 219 to 221 °C | 
COc1ccccc1CCNCCCCC(=O)c1cc2c(c(S(=O)(=O)NC(C)C)c1)OCC2.Cl | 157 to 159 °C | 
COc1ccccc1CCNCCCCC(=O)c1ccc(OC)c(S(=O)(=O)NC(C)C)c1.Cl | 164 to 166 °C | 
CC(Cc1ccccc1)N1CCC(CCC(=O)c2cc3c4c(c2)CCN4C(=O)CC3)CC1.Cl (racemic) | 211 to 213 °C | 
CCOc1ccccc1OCCN1CCC(CCC(=O)c2ccc(OC)c(N)c2)CC1 (as salt: hydrochloride) | 123 to 125 °C | 
Cl.O=C(CCCCNCCc1ccccc1Cl)c1cc2c3c(c1)CCN3C(=O)CC2 | 128 to 130 °C | 
COc1cc2c(cc1OC)CN(CCCCCC(=O)c1cc3c4c(c1)CCN4C(=O)CC3)CC2.Cl | 216 to 218 °C | 
Cl.O=C(CCCCNCCc1ccccc1Cl)c1c[nH]c2ccccc12 | 149 to 151 °C | 
COc1cccc(CCNCCCCC(=O)c2cc3c4c(c2)CCN4C(=O)CC3)c1OC.Cl | 154 to 156 °C | 
COc1ccc(C(=O)CCCCNCCc2ccccc2Cl)cc1NS(C)(=O)=O.Cl | 133 to 135 °C | 
Cl.O=C(CCC1CCN(CC(=O)c2ccccc2)CC1)c1cc2c3c(c1)CCN3C(=O)CC2 | 114 to 116 °C | 
COc1ccc(CCNCCCCC(=O)c2cc3c4c(c2)CCN4C(=O)CC3)cc1S(N)(=O)=O.Cl | 145 °C (dec.) | 
Cl.O=C(CCCCNC1CCc2ccccc21)c1cc2c3c(c1)CCN3C(=O)CC2 (racemic) | 98 to 100 °C | 
Cl.O=C(CCC1CCN(CCc2c[nH]c3ccccc23)CC1)c1cc2c3c(c1)CCN3C(=O)CC2 | 157 to 159 °C | 
CCOc1ccccc1OCCN[C@H](C)Cc1ccc(OC)c(S(N)(=O)=O)c1 [tamsulosin, Tamsulosin, reference compound] |  | reduction of blood pressure (Hartley male guinea pigs; 0.01 mg/kg, i.v.): about 40%; Blood pressure, after administration (Hartley male guinea pigs; average blood pressure 15 minutes after i.v. administration, tamsulosin 0.01 mg/kg, Example 20 0.1 mg/kg): 32.9 ± 3.0 mmHg; Blood pressure, before administration (Hartley male guinea pigs; average blood pressure just before i.v. administration, tamsulosin 0.01 mg/kg, Example 20 0.1 mg/kg): 54.5 ± 2.5 mmHg; change in bladder internal pressure (ΔPves(Qmax)) [1, 2]: −3.56 ± 1.09 cmH2O; change in maximum urine flow rate (ΔQmax) [1, 2]: 0.036 ± 0.014 mL/s; voiding efficiency (% of pre-value) ([1]; after administration relative to before): 118.5 ± 13.4 %
COc1ccccc1CCNCCCCC(=O)c1cc2c3c(c1)CC(=O)N3CCC2.Cl | 169 to 170 °C | 
Cl.O=C(CCCCCN1CCc2ccccc2CC1)c1cc2c3c(c1)CCN3C(=O)CC2 | 222 to 225 °C | 
COc1ccc(C(=O)CCCCNCCc2ccccc2)cc1S(N)(=O)=O.Cl | 160 to 168 °C | 

SMILES | melting point | other results
Cl.O=C1CCc2cc(C(=O)[C@H]3CC[C@H](CNCCc4ccccc4Cl)CC3)cc3c2N1CC3 | 271 °C | 
COc1ccccc1CCN(C)CCCCC(=O)c1ccc2c(c1)CNC(=O)N2.Cl | 170 to 171 °C (dec.) | 
Cl.O=C(CCCCCNCCc1ccccc1Cl)c1cc2c3c(c1)CCN3C(=O)CC2 | 172 to 174 °C | 
Cl.NS(=O)(=O)c1cc(C(=O)CCCCNCCc2ccccc2Cl)cc2c1OCCO2 | 178 to 180 °C | 
Cc1ccccc1CCN1CCC(CCC(=O)c2cc3c4c(c2)CCN4C(=O)CC3)CC1.Cl | 215 to 216 °C | 
COc1ccccc1CCNCCCCCC(=O)c1ccc(OC)c(NS(C)(=O)=O)c1.Cl | 142 to 144 °C | 
Cl.O=C(CCCCNCCc1ccccc1Cl)c1ccc2[nH]c(=O)[nH]c2c1 | 233 °C | 
COc1ccc(C(=O)CCCCNCCc2ccccc2Cl)cc1S(=O)(=O)NC(C)C.Cl | 179 to 181 °C | 
Cl.O=C(CCC1CCN(CCc2ccccc2O)CC1)c1cc2c3c(c1)CCN3C(=O)CC2 | 220 to 222 °C | 
Cl.O=C(CCC1CCN(CCc2ccccc2Cl)CC1)c1cc2c3c(c1)CCN3C(=O)CC2 | 207 to 210 °C | 
Cl.O=C(CCCCCN1CCCc2ccccc2C1)c1cc2c3c(c1)CCN3C(=O)CC2 | 195 to 197 °C | 
Cc1cccc(CCN2CCC(CCC(=O)c3cc4c5c(c3)CCN5C(=O)CC4)CC2)c1.Cl | 197 to 199 °C | 
Cl.O=C(CCCCNC1Cc2ccccc2C1)c1cc2c3c(c1)CCN3C(=O)CC2 | 187 to 189 °C | 
COc1ccccc1CCNCCCCC(=O)c1cc2c3c(c1)CCN3C(=O)CC2.Cl | 94 to 96 °C | 
COc1ccc(C(=O)CCCCCNCCc2ccccc2)cc1NS(C)(=O)=O.Cl | 136 to 138 °C | 
CCOc1ccccc1OCCN1CCC(CCC(=O)c2ccc(OC)c(NC(C)=O)c2)CC1.Cl | 127 to 129 °C | 
COc1ccccc1CCNCCCCCC(=O)c1cccs1.Cl | 107 to 109 °C | 
COc1ccccc1CCNCCCCC(=O)c1ccc2c(c1)CNC(=O)N2.Cl | 176 to 180 °C (dec.) | 
CN(CCCCC(=O)c1ccc2c(c1)CN(C)C(=O)N2C)CCc1ccccc1.Cl | 174 to 176 °C | 
COc1ccccc1CCNCCCCC(=O)c1cccs1.Cl | 101 to 103 °C | 
